Results on one compound are retold here after US10670605B2, “Cysteine reactive probes and uses thereof” (The Scripps Research Institute, priority 2015, dated 2020).

Common to all, as to experiment: Competitive isoTOP-ABPP, cell lysates
Common to all, as to type: binding
What all share (settings): 500 μm, in-vitro_ramos_231

In test [1] the target is T1, ACAT1 C126 (P24752) (Homo sapiens, UniProt P24752).
T1 sequence (P24752 34-427): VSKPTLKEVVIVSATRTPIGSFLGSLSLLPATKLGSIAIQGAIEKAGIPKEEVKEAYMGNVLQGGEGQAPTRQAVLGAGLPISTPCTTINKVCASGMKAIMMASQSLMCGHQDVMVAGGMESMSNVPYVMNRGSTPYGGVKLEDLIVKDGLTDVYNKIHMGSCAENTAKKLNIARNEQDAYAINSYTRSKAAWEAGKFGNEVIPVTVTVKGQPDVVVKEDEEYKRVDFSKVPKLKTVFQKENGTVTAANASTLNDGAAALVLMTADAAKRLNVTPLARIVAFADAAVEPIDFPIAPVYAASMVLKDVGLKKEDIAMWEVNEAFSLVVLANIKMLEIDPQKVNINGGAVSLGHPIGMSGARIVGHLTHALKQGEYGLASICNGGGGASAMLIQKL

Test [2] has as its target T2, ACAT1 C413 (P24752) (Homo sapiens, UniProt P24752).
T2 sequence (P24752 34-427): T1 sequence (P24752 34-427)

In test [3] the target is T3, ACAT1 C119 (P24752) (Homo sapiens, UniProt P24752).
T3 sequence (P24752 34-427): T1 sequence (P24752 34-427)

Test [4] addresses T4, ACAT1 C196 (P24752) (Homo sapiens, UniProt P24752).
T4 sequence (P24752 34-427): T1 sequence (P24752 34-427)

Test [5] addresses PRMT1 C109 (Q99873) (Homo sapiens, UniProt Q99873). The method, then:
(§1) TEV digests were pressure loaded onto a 250 μm (inner diameter) fused silica capillary column packed with C18 resin (Aqua 5 μm, Phenomenex). The samples were analyzed by multidimensional liquid chromatography tandem mass spectrometry (MudPIT), using an LTQ-Velos Orbitrap mass spectrometer (Thermo Scientific) coupled to an Agilent 1200-series quaternary pump. The peptides were eluted onto a biphasic column with a 5 μm tip (100 μm fused silica, packed with C18 (10 cm) and bulk strong cation exchange resin (3 cm, SCX, Phenomenex,)) in a 5-step MudPIT experiment, using 0%, 30%, 60%, 90%, and 100% salt bumps of 500 mM aqueous ammonium acetate and using a gradient of 5-100% buffer B in buffer A (buffer A: 95% water, 5% acetonitrile, 0.1% formic acid; buffer B: 5% water, 95% acetonitrile, 0.1% formic acid) as has been described in Weerapana et al. Nat Protoc 2:1414-1425 (2007). Data was collected in data-dependent acquisition mode with dynamic exclusion enabled (20 s, repeat of 2). One full MS (MS1) scan (400-1800 m/z) was followed by 30 MS2 scans (ITMS) of the nth most abundant ions.
(§2) The ratios of heavy/light for each unique peptide (DMSO/compound treated; isoTOP-ABPP ratios, R values) were quantified with in-house CIMAGE software, using default parameters (3 ms s per peak and signal to noise threshold 2.5). Site-specific engagement of electrophilic fragments was assessed by blockade of IA-alkyne probe labeling. […] Ratios for unique peptide entries were calculated for each experiment; overlapping peptides with the same modified cysteine (e.g. different charge states, MudPIT chromatographic steps or tryptic termini) were grouped together and the median ratio was reported as the final ratio (R). The peptide ratios reported by CIMAGE were further filtered to ensure the removal or correction of low quality ratios in each individual dataset. The quality filters applied were the following: removal of half tryptic peptides; for ratios with high standard deviations from the median (90% of the median or above) the lowest ratio was taken instead of the median; removal of peptides with R=20 and only a single ms2 event triggered during the elution of the parent ion; manual annotation of all the peptides with ratios of 20, removing any peptides with low-quality elution profiles that remained after the previous curation steps. Proteome reactivity values for individual fragments were computed as the percentage of the total quantified cysteine-containing peptides with R values≥4 (defined as liganded cysteines) for each replicate experiment and the final proteome reactivity value was calculated as the mean for all replicate experiments for each fragment from both MDA-MB-231 and Ramos cellular proteomes.
(§3) Biological replicates of the same compound and cell-line were averaged if the standard deviation was below 60% of the mean; otherwise the lowest value of the ratio set was taken.

Test [6] deals with SAMHD1 C522 (Q9Y3Z3) (Homo sapiens, UniProt Q9Y3Z3). Here is the method: as §1, §2, §3
The target in test [7] is XPO1 C34 (O14980) (Homo sapiens, UniProt O14980). Here is the method: as §1, §2, §3
In test [8] the target is T5, PDIA6 C55 (Q15084) (Homo sapiens, UniProt Q15084).
T5 sequence (Q15084 20-440): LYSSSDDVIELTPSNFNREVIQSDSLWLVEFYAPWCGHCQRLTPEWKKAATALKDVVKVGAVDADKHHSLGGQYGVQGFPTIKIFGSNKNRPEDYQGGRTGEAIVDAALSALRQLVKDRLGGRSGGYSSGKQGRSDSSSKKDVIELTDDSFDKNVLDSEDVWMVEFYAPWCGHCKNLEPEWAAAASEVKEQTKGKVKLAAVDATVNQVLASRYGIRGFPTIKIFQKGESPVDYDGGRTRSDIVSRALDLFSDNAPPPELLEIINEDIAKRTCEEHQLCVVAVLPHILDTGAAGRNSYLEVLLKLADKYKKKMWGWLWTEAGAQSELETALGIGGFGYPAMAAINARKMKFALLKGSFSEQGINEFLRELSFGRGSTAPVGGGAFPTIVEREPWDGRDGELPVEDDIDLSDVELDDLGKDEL
The method, then:
as §1, §2, §3

The target in test [9] is T6, PDIA6 C190 (Q15084) (Homo sapiens, UniProt Q15084).
T6 sequence (Q15084 20-440): T5 sequence (Q15084 20-440)
Here is the method:
as §1, §2, §3

Test [10] addresses UBE2L3 C86 (P68036) (Homo sapiens, UniProt P68036). Here is the method:
as §1, §2, §3

For test [11], the target named is T7, AIP C122 (O00170) (Homo sapiens, UniProt O00170).
T7 sequence (O00170 1-330): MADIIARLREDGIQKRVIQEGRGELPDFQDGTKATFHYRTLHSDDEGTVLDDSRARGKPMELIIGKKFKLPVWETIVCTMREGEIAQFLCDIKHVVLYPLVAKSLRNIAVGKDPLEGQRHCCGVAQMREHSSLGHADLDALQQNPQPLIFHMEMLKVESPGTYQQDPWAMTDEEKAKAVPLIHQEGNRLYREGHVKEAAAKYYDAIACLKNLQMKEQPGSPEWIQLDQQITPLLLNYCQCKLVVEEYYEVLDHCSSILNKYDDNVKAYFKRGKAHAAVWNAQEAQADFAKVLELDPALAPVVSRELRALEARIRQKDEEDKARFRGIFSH
Here is the method:
as §1, §2, §3

Test [12] has as its target ZNF217 C286 (O75362) (Homo sapiens, UniProt O75362). The method, then:
as §1, §2, §3

The target of test [13] is LRBA C1704 (P50851) (Homo sapiens, UniProt P50851). Here is the method:
as §1, §2, §3
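For isoTOP-ABPP reactivity profile ratio, O00170 C122 in this document: Heavy/light ratio DMSO over fragment-treated so higher means more cysteine engagement.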
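For isoTOP-ABPP reactivity profile ratio, P68036 C86 in this document: Heavy/light ratio DMSO over fragment-treated so higher means more cysteine engagement.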
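For isoTOP-ABPP reactivity profile ratio, Q15084 C190 in this document: Heavy/light ratio DMSO over fragment-treated so higher means more cysteine engagement.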
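For isoTOP-ABPP reactivity profile ratio, Q99873 C109 in this document: Heavy/light ratio DMSO over fragment-treated so higher means more cysteine engagement.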

With `Cc1ccc(C(F)(F)F)cc1NC(=O)CCl` [compound 49], the “isoTOP-ABPP reactivity profile ratio, P24752_C126” value in test [1] is listed as 20.0. In test [2], the “isoTOP-ABPP reactivity profile ratio, P24752_C413” value turned out to be 2.6. In addition, the “isoTOP-ABPP reactivity profile ratio, P24752_C119” value in test [3] is reported as 4.9. Moreover, the “isoTOP-ABPP reactivity profile ratio, P24752_C196” value in test [4] amounted to 4.7. Besides, the “isoTOP-ABPP reactivity profile ratio, Q99873_C109” value in [5] worked out at 2.0. Further, in test [6], the “isoTOP-ABPP reactivity profile ratio, Q9Y3Z3_C522” value was 3.0. The “isoTOP-ABPP reactivity profile ratio, O14980_C34” value in test [7] is reported as 1.9. Further, the “isoTOP-ABPP reactivity profile ratio, Q15084_C55” value in test [8] amounted to 12.8. Also, the “isoTOP-ABPP reactivity profile ratio, Q15084_C190” value in test [9] is 7.7. Besides, the “isoTOP-ABPP reactivity profile ratio, P68036_C86” value in test [10] is given as 1.9. The “isoTOP-ABPP reactivity profile ratio, O00170_C122” value in test [11] came to 4.8. The “isoTOP-ABPP reactivity profile ratio, O75362_C286” value in [12] was found to be 1.0. Further, the “isoTOP-ABPP reactivity profile ratio, P50851_C1704” value in test [13] is 4.0.
